Measurements: patent US9040673B2, “Synthesis and identification of novel RSK-specific inhibitors” (University of Virginia Patent Foundation, priority 2009, dated 2015)
pEC50: −log10 of the molar value.

Key:
[1] = system: J774A.1 cells; test: LPS-stimulated factor expression in J774A.1 cells (immunoblot); format: cell-based, murine; conditions: 60 μM, 1 μg/ml LPS, 24 hours
Description: FIGS. 2A & 2B Analysis of LPS stimulated cytokine expression. […] Reactions were terminated with 2×-SDS lysis buffer at indicated time points and the lysates were immunoblotted.
FIGS. 3A & 3B RSK inhibition abrogates LPS-induced iNOS expression. […] Twenty-four hours after treatment, reactions were terminated with 2×-SDS lysis buffer and the lysates were immunoblotted.
LPS activation of macrophages results in secretion of factors that stimulate the innate immune system. […] Twenty-four hours after LPS treatment the cells were lysed as previously described (Traish, et al., 1998. J. Biol. Chem. 273:13317-13323) in preparation for immunoblot analysis. Expression of the pro-inflammatory factors, TNFα, IL-1b, the anti-inflammatory factor, IL-10 and inducible nitric oxide synthase was examined by immunoblot of the cell lysates.

[2] = system: HUVEC cells; test: HUVEC cell growth; format: cell-based, human
[3] = system: Ha-Ras transformed NIH/3T3 cells; test: proliferation of Ha-Ras transformed NIH/3T3 cells; format: cell-based
Experimental: FIGS. 7A & 7B. SL0101-1 inhibition of cell proliferation is reversible. FIG. 7A: Ha-Ras-transformed cells were treated with vehicle or 50 μM SL0101-1. After 48 hr the medium was replaced and cells previously incubated with vehicle were maintained in vehicle. Cells that had previously been incubated with SL0101-1 were treated with either SL0101-1 or vehicle (washout). Cell viability was measured 48 hr later. FIG. 7B: Determination of siRNA to inhibit cancer cell proliferation. Duplex siRNAs to a sequence in the bluescript plasmid (Control), RSK1, RSK2 or RSK1 and RSK2 were transfected into MCF-7 cells. Medium was replaced 24 hr post-transfection and the cells incubated for an additional 48 hr prior to measuring cell viability.
The importance of MAPK to proliferation and oncogenesis is well established. However, the role that RSK plays in these processes has not been examined. […] SL0101-1 produced striking morphology changes in the transformed cells but not in the parental cell line. The vehicle control treated Ha-Ras transformed cells were elongated whereas in response to SL0101-1 the cells became much larger and flatter, appearing more like the parental cells, or like Ha-Ras transformed cells treated with U0126.
Cell Culture. […] Cell viability was measured at indicated time points using CellTiter-Glo™ assay reagent (Promega) according to manufacturer's protocol. […]

[4] = system: MCF-7 cells; test: MCF-7 cell proliferation (CellTiter-Glo cell viability); format: cell-based, human
[5] = system: RSK activity (eEF2 phosphorylation); test: eEF2 phosphorylation in J774A.1 macrophages; format: cell-based, murine; conditions: J774A.1 cells
Description: The translocation step in mRNA translation is mediated by eEF2. […] This phosphorylation is produced by a highly specific kinase, EF2 kinase (EF2K). RSK phosphorylates and inactivates EF2K in response to mitogenic stimulations, which leads to a decrease in eEF2 phosphorylation (Wang, et al. Embo J 20:4370-9). Under conditions in which RSK activity is low, as during serum deprivation, eEF2 is phosphorylated by the active EF2K. However, stimulation of RSK activity by mitogens such as phorbol dibutyrate (PDB) results in reduced phosphorylation of eEF2 due to inactivation of EF2K by RSK. Therefore, the phosphorylation state of eEF2 is an indicator of RSK activity. […] The levels of total eEF2 were not altered by any of the treatments.

[6] = system: mouse primary peritoneal macrophages; test: LPS-induced iNOS expression in primary peritoneal macrophages; format: cell-based; conditions: 60 μM, 1 μg/ml LPS, 24 hours
[7] = system: p140, a RSK substrate; test: PDB-induced p140 phosphorylation in MCF-10A cells (immunoblot); format: cell-based, human
Experimental: To determine whether SL0101-1 inhibits RSK in intact cells, phosphorylation of p140, a RSK substrate of unknown function, was examined in a human breast cancer cell line, MCF-7. MCF-7 and MCF-10A cells were pre-incubated with vehicle, 50 μM U0126 or the indicated concentration of SL0101-1 for 3 hr (FIG. 8D). Cells were treated with 500 nM PDB for 30 min prior to lysis. Protein concentration of lysates was measured and lysates were electrophoresed, transferred and immunoblotted. […] Pre-incubation of cells with 100 μM SL0101-1 abrogates phorbol dibutyrate (PDB)-induced p140 phosphorylation as does 50 μM U0126, a MEK inhibitor.
(§1) Cell Culture. For proliferation studies cells were seeded at 2500 to 5000 cells per well in 96 well tissue culture plates in the appropriate medium as described by American Type Culture Collection. After 24 hr, the medium was replaced with medium containing compound or vehicle as indicated. Cell viability was measured at indicated time points using CellTiter-Glo™ assay reagent (Promega) according to manufacturer's protocol. For in vivo inhibition studies, cells were seeded at 2.5×10^5 cells/well in 12 well cell culture clusters. After 24 hr, the cells were serum starved for 24 hr then incubated with compound or vehicle for 3 hr prior to a 30 min PDB stimulation. Cells were lysed as previously described (J. Biol. Chem. 273, 13317-13323 (1998)). […]

[8] = system: LNCaP cells; test: LNCaP cell proliferation; format: cell-based, human; conditions: 50 μM (FIG. 8B)
Experimental: FIGS. 8A-8D SL0101-1 inhibits the proliferation of cancer cells but not normal cells. […] Cell viability was measured at indicated time points. Proliferation assays were conducted using CellTiter-Glo Luminescent Cell Viability Assay (Promega), performed 44 hrs after treatment for FIGS. 8A &B and at indicated points for FIG. 8C. The data are expressed relative to time 0.
as §1, with “(1998)). The lysates were normalized for total protein, electrophoresed and immunoblotted. For cell imaging, Ha-Ras-transformed NIH/3T3 cells were seeded on LABTEK II chamber slides (Nalge) at a density of 1×10^4 cells/well. After 24 hr, fresh medium was added the indicated compounds or vehicle.” for “(1998)).”

[9] = system: macrophages; format: cell-based

Structure (SMILES): CC(=O)O[C@@H]1[C@@H](OC(C)=O)[C@@H](O)[C@H](Oc2c(-c3ccc(O)cc3)oc3cc(O)cc(O)c3c2=O)O[C@H]1C [SL0101, kaempferol 3-O-(3″,4″-di-O-acetyl-α-L-rhamnopyranoside)]
- LPS-induced iNOS expression [1]: abrogated the induction of iNOS expression
- expression of TNFα, IL-1b, IL-10 [1]: did not alter the expression
- rate of HUVEC cell growth [2]: does not alter the rate of HUVEC cell growth
- growth rate of Ha-Ras transformed cells [3]: decreased the growth rate
- reversibility of growth inhibition (washout) ([3]; 50 μM for 48 hr, then washout, viability 48 hr later): Removal of SL0101-1 resulted in growth of the transformed cells
- inhibition of MCF-7 cell growth ([4]; 50 uM): similarly effective at inhibiting MCF-7 cell growth
- proliferation of MCF-7 cells ([4]; 50 μM (FIG. 8A)): inhibited proliferation
- pEC50 ([4]; Homo sapiens, MCF7, read-out: EC50 of MCF-7 cell proliferation inhibition): ~4.30
- peEF2 levels [5]: increases peEF2 levels
- LPS-induced iNOS expression [6]: abrogates iNOS expression
- PDB-induced p140 phosphorylation [7]: prevented the PDB-induced p140 phosphorylation
- proliferation of LNCaP cells [8]: completely inhibits the proliferation
- Y. pseudotuberculosis-induced actin rearrangement [9]: actin rearrangement is not observed
